Test results from US9839632B2, “Methods and compositions using 4-amino-2-(2,6-dioxo-piperidine-3-yl)-isoindoline-1,3-dione for treatment and management of central nervous system cancers” (CELGENE CORPORATION, priority 2013, dated 2017).
Read-outs that look alike come from different tables or passages of the source.

How the values were obtained:
[1] = fasted male CD-IGS rats, cited from earlier work; for F: PO 50 mg/kg vs IV 5 mg/kg
[2] = system: primary murine microglia cells cocultured with OCI-LY10 lymphoma cells; assay: Polarization of primary murine microglia cocultured with OCI-LY10 lymphoma cells with or without primary murine NK cells; type: cell-based; details: for M2 polarization of microglia cells (FXIIIA, pSTAT6): coculture with OCI-LY10 lymphoma cells, without NK cells; for polarization status of microglia cells (iNOS, pSTAT1): triple culture with OCI-LY10 lymphoma cells and primary murine NK cells, 10 ug/ml 48 hours
Experimental: (§1) Treatments: In experiments in which IL-4 was used to induce M2 polarization of macrophages, cells were treated with IL-4 (20 ng/ml) for 48 hours followed by treatment with 4-amino-2-(2,6-dioxo-piperidine-3-yl)-isoindoline-1,3-dione (10 ug/ml) or DMSO control for 48 hours. In triple cell culture experiments with lymphoma cells, macrophages, and NK cells, the treatment was with either DMSO or 4-amino-2-(2,6-dioxo-piperidine-3-yl)-isoindoline-1,3-dione (10 ug/ml) for 48 hours.
(§2) Immunofluorescence for analysis of macrophage polarization in cell culture experiments: Live cells were fixed in 10% formalin for 30 minutes at room temperature followed by permeabilization with PBS-0.2% Triton X-100 for 2 min. After blocking with PBS-5% goat serum-0.02% Triton X-100 for 30 minutes at 37° C., the cells were incubated overnight at 4° C. with rat monoclonal F4/80 antibody (for primary microglia cells, 1:200 Abcam), rat monoclonal CD11b (for U937, 1:200 Biolegend), rabbit polyclonal Ym1 antibody (for primary microglia cells and primary peritoneal macrophages, 1:200, Stemcell Technologies, Vancouver, Canada), rabbit polyclonal FXIII A antibody (for U937, 1:200, Abcam), mouse monoclonal p-STAT1 antibody (1:200, Abcam), rabbit polyclonal p-STAT6 antibody (1:200, Abcam) or rabbit iNOS antibody (1:200, Calbiochem). After washing, cells were incubated with the Alexa Fluor 594 Goat anti-Rat IgG secondary antibody (1:1000, Life Technologies) and FITC Donkey anti-rabbit IgG secondary antibody (1:1000, Life technology) or FITC Goat anti-mouse IgG secondary antibody (1:1000, Sigma) at 37° C. for 45 minutes. Finally, Vectashield H-1200 mounting medium with DAPI (Vector Laboratories) was used to stain the nuclei. Images were obtained on a Zeiss LSM 510 META confocal microscope.

[3] = system: macrophages and NK cells in the CNS lymphoma microenvironment; assay: Immunohistochemistry/immunofluorescence of CNS lymphoma microenvironment, OCI-LY10 model; type: in vivo, athymic mice; details: P<0.05 vs control
Source text: Immunohistochemistry (“IHC”) assessment for macrophages: Paraffin sections (10 μm thick) were fixed, blocked, and immunostained with the appropriate antibody: Iba-1 (BD Biosciences) for macrophages, Ym1 (Stemcell Technologies) as a marker for M2 polarization, iNOS (Calbiochem) as a marker for M1 polarization. Aperio ScanScope XT slide scanner and image analysis system (Aperio Spectrum, Vista, Calif.) were used for quantitative assessment of macrophages. Three equal-size (0.4 mM2) fields in macrophage-dense areas were selected in the contralateral brain and the tumor for counting. Data were shown as an average of the three fields.
Immunofluorescence for natural killer cells: Frozen sections (10 μm thick) were permeabilized with PBS-0.2% Triton X-100 for 5 min. After blocking with PBS-5% goat serum-0.02% Triton X-100 for 45 mins at 37° C., the sections were incubated overnight at 4° C. with Rat monoclonal CD335 antibody (a marker for NK cells, 1:200, Biolegend). After washing, sections were incubated with the Alexa Fluor 594 Goat anti-Rat IgG secondary antibody (1:1000, Life Technologies) at 37° C. for 1.5 h. Finally, Vectashield H-1200 mounting medium with DAPI (Vector Laboratories) was used to stain the nuclei. Images were obtained on a Zeiss LSM 510 META confocal microscope. Six equal-size (0.2 mM^2) fields in NK-dense areas were selected in the tumor for taking pictures. Fluorescence intensity data were generated by Zeiss LSM 510 and shown as an average of six fields.
Statistical analysis: One-way ANOVA was used to compare the difference between the groups at each time point. Two-way repeated measures ANOVA was used to analyze the interaction between the time and treatment. Survival analysis was performed by Kaplan Meier method. Kaplan Meier survival curves were generated using Prism4 software and the statistical difference between curves was derived with a log-rank test. P<0.05 was considered significant.

[4] = system: primary murine microglia cells cocultured with Raji lymphoma cells; assay: Polarization of primary murine microglia cocultured with Raji lymphoma cells with or without primary murine NK cells; type: cell-based; details: for M2 polarization of microglia cells (FXIIIA, pSTAT6): coculture with Raji lymphoma cells, without NK cells; for polarization status of microglia cells (iNOS, pSTAT1): triple culture with Raji lymphoma cells and primary murine NK cells, 10 ug/ml 48 hours
Experimental: as §1, §2

[5] = system: primary murine microglia cells; assay: Phagocytosis assay, primary murine microglia cells; type: cell-based; details: 3 or 10 ug/ml, 48 hours, P<0.05 vs control
Experimental: Phagocytosis assay: The impact of 4-amino-2-(2,6-dioxo-piperidine-3-yl)-isoindoline-1,3-dione on the phagocytic activity of macrophages was assessed in primary microglial cells and human monocyte cells (U937). The cells were cultured in complete medium for 4 days. They were then harvested and resuspended in Opti-MEM medium at 10^6 cells/ml and seeded in a 96 well plate at 100,000 viable cells/well. The experimental wells were treated with 4-amino-2-(2,6-dioxo-piperidine-3-yl)-isoindoline-1,3-dione 3 or 10 ug/ml. After 48 hours of treatment, the culture medium was quickly replaced with 100 ul of pHrodo BioParticles suspension (Life technologies and the cells were incubated in the suspension at 37° C. for 2-3 hours. Following incubation, the plates were scanned at 550 nm/600 nm (excitation/emission) using fluorescence plate reader. The fluorescence activity reflects the phagocytic activity of the macrophages. The impact of 4-amino-2-(2,6-dioxo-piperidine-3-yl)-isoindoline-1,3-dione treatment (% effect) was calculated as a fraction of the phagocytic activity in the positive control wells. Wan, C. P.; et al., J. Immunol. Methods, 1993, 162, pp. 1-7.

[6] = listed as 4-amino-2-(2,6-dioxo-piperidine-3-yl)-isoindoline-1,3-dione

Structure (SMILES): Nc1cccc2c1C(=O)N(C1CCC(=O)NC1=O)C2=O (stereo not shown) [Pomalidomide, 4-amino-2-(2,6-dioxo-piperidine-3-yl)-isoindoline-1,3-dione]
- F [1]: 47.4%
- F ([1]; listed as CC-4047): 47.4 ± 15.2%
- AUC(0-inf) ([1]; single IV 5 mg/kg, n = 5): 7016 ± 1551 ng·h/mL
- CL ([1]; single IV 5 mg/kg, n = 5): 12.3 mL/min/kg
- T1/2 ([1]; single IV 5 mg/kg, n = 5): 2.44 ± 0.8 h
- Vss ([1]; single IV 5 mg/kg, n = 5): 1.75 L/kg
- AUC(0-24) ([1]; single PO 50 mg/kg, n = 4): 33155 ± 8561 ng·h/mL
- Cmax ([1]; single PO 50 mg/kg, n = 4): 3372 ± 758 ng/mL
- Tmax ([1]; single PO 50 mg/kg, n = 4): 2.0 ± 0.0 h
- M2 polarization of microglia cells (FXIIIA, pSTAT6) [2]: reversed
- M2 polarization of microglia cells (FXIIIA, pSTAT6) [2, 6]: M2 polarization was not seen
- polarization status of microglia cells (iNOS, pSTAT1) [2]: from M2 to M1
- polarization status of microglia cells (iNOS, pSTAT1) [2, 6]: became M1-polarized
- CD335 positive NK cells in CNS tumors [3]: significantly increased
- Ym1 expression (M2-polarized macrophages) in tumor [3]: significantly decreased
- iNOS activity (M1-polarized macrophages) in tumor [3]: increased
- CD335 positive NK cells in CNS tumors [3, 6]: significant increase
- Ym1 expression (M2-polarized macrophages) in tumor [3, 6]: significant decrease
- iNOS activity (M1-polarized macrophages) in tumor [3, 6]: significant increase
- brain macrophages (Iba-1 positive cells) ([3]; contralateral brain and tumor): significantly increased
- M2 polarization of microglia cells (FXIIIA, pSTAT6) [4]: reversed
- M2 polarization of microglia cells (FXIIIA, pSTAT6) [4, 6]: M2 polarization was not seen
- polarization status of microglia cells (iNOS, pSTAT1) [4]: from M2 to M1
- polarization status of microglia cells (iNOS, pSTAT1) [4, 6]: became M1-polarized
- phagocytic activity [5]: significantly increased
